Experimental data from patent publication US6337417B1, “N-phenyltetrahydrophthalamic acid derivatives, methods of producing same, and herbicides containing same as effective components” (Central Glass Co., Ltd., priority 1994, dated 2002).

How the values were obtained:
Format in all cases: in vivo
Set-up in all cases: key: 5: completely killed; 4: seriously injured; 3: considerably injured; 2: somewhat injured; 1: slightly injured; 0: not injured (normally grown)
[1] = tested on: aobiyu (slender amaranth, Amaranthus viridis); assay: Experiment 2 foliage treatment: aobiyu; conditions: 4 weeks after treatment
Description: (§1) Upon seedling stage (two- or three-leaved stage) of rice, cockspur (Panicum crus-galli), garden radish, aobiyu (slender amaranth, Amaranthus viridis) and mehishiba (henry crabgrass, Digitaria cliaris) which were grown on a cultivated soil put in pots of 1/15500 ares, a selected compound obtained in a manner analogous to Example 8, in suspended wettable powder, was sprayed to each plant. After that, the pots were kept in a glass chamber to allow each plant to grow, and after the lapse of 4 weeks from the treatment with the selected compounds the herbicidal effects were evaluated. The evaluation of the herbicidal effects was similarly conducted as to that of Experiment 1.

[2] = tested on: aobiyu (slender amaranth, Amaranthus viridis); assay: Experiment 5 foliage treatment: aobiyu; conditions: foliage spray of wettable powder suspension, evaluated 4 weeks after treatment
Description: as §1, with “11,” for “8,”, “as” for “as to”

rice [3] = assay: Experiment 8 foliage treatment: rice; conditions: foliage spray of wettable powder suspension, evaluated 4 weeks after treatment
Description: as §1, with “14,” for “8,”

rice [4] = assay: Experiment 2 foliage treatment: rice; conditions: 4 weeks after treatment
Description: as §1

garden radish [5] = assay: Experiment 2 foliage treatment: garden radish; conditions: 4 weeks after treatment
Description: as §1

[6] = tested on: mehishiba (henry crabgrass, Digitaria cliaris); assay: Experiment 8 foliage treatment: mehishiba; conditions: foliage spray of wettable powder suspension, evaluated 4 weeks after treatment
Description: as §1, with “14,” for “8,”

garden radish [7] = assay: Experiment 5 foliage treatment: garden radish; conditions: foliage spray of wettable powder suspension, evaluated 4 weeks after treatment
Description: as §1, with “11,” for “8,”, “as” for “as to”

[8] = tested on: cockspur (Panicum crus-galli); assay: Experiment 8 foliage treatment: cockspur; conditions: foliage spray of wettable powder suspension, evaluated 4 weeks after treatment
Description: as §1, with “14,” for “8,”

[9] = tested on: mehishiba (henry crabgrass, Digitaria cliaris); assay: Experiment 2 foliage treatment: mehishiba; conditions: 4 weeks after treatment
Description: as §1

[10] = tested on: mehishiba (henry crabgrass, Digitaria cliaris); assay: Experiment 5 foliage treatment: mehishiba; conditions: foliage spray of wettable powder suspension, evaluated 4 weeks after treatment
Description: as §1, with “11,” for “8,”, “as” for “as to”

garden radish [11] = assay: Experiment 8 foliage treatment: garden radish; conditions: foliage spray of wettable powder suspension, evaluated 4 weeks after treatment
Description: as §1, with “14,” for “8,”

[12] = tested on: cockspur (Panicum crus-galli); assay: Experiment 5 foliage treatment: cockspur; conditions: foliage spray of wettable powder suspension, evaluated 4 weeks after treatment
Description: as §1, with “11,” for “8,”, “as” for “as to”

rice [13] = assay: Experiment 5 foliage treatment: rice; conditions: foliage spray of wettable powder suspension, evaluated 4 weeks after treatment
Description: as §1, with “11,” for “8,”, “as” for “as to”

[14] = tested on: cockspur (Panicum crus-galli); assay: Experiment 2 foliage treatment: cockspur; conditions: 4 weeks after treatment
Description: as §1

[15] = tested on: aobiyu (slender amaranth, Amaranthus viridis); assay: Experiment 8 foliage treatment: aobiyu; conditions: foliage spray of wettable powder suspension, evaluated 4 weeks after treatment
Description: as §1, with “14,” for “8,”

[16] = tested on: nobie (barnyardgrass, Echinochloa spp.); assay: Experiment 7 flooded soil treatment: nobie; conditions: evaluated 4 weeks after treatment
Description: (§2) Paddy soil (clay loam) was put into a pot so as to have a surface area of 1/15500 ares. Uniformly mixed seeds of several kinds of weeds, viz., nobie (barnyardgrass, Echinochloa spp.), broad-leaved weeds, hotarui (bulrush, Scirpus juncoides) and tamagayatsuri (small-flowered umbrellaplant, Cyperus difformis), were sown in the surface layer of the soil in each pot, and then paddy rice seedlings at the two- or three-leaved stage were transplanted into each pot to a depth of 2 cm, and water was fed into each pot so as to provide a 3 cm deep water layer on the soil surface. After 3 days, in other words at the initial stage of germination of nobie (barnyardgrass, Echinochloa spp.), a predetermined amount of a selected compound obtained in a manner analogous to Example 14 in the form of diluted aqueous solution was dropped into the water layer in each pot. After that, the pots were kept in a glass chamber to allow the paddy rice and the weeds to grow, and after the lapse of 4 weeks from the treatment with the selected compounds, the herbicidal effects and the degree of injury to the paddy rice were evaluated. The evaluation of the herbicidal effects was similarly conducted as that of Experiment 1.

[17] = tested on: hotarui (bulrush, Scirpus juncoides); assay: Experiment 7 flooded soil treatment: hotarui; conditions: evaluated 4 weeks after treatment
Description: as §2

broad-leaved weeds = assay: Experiment 7 flooded soil treatment: broad-leaved weeds; conditions: evaluated 4 weeks after treatment
Description: as §2

[18] = tested on: tamagayatsuri (small-flowered umbrellaplant, Cyperus difformis); assay: Experiment 7 flooded soil treatment: tamagayatsuri; conditions: evaluated 4 weeks after treatment
Description: as §2

paddy rice = assay: Experiment 7 flooded soil treatment: injury to paddy rice; conditions: evaluated 4 weeks after treatment
Description: as §2

Compound | Herbicidal Effect aobiyu ([1]; 40 g/10a) | Herbicidal Effect aobiyu ([1]; 80 g/10a) | Herbicidal Effect rice (rice [3]; 40 g/10a) | Herbicidal Effect rice (rice [3]; 80 g/10a) | Herbicidal Effect rice (rice [4]; 40 g/10a) | Herbicidal Effect rice (rice [4]; 80 g/10a) | Herbicidal Effect garden radish (garden radish [5]; 40 g/10a) | Herbicidal Effect garden radish (garden radish [5]; 80 g/10a) | Herbicidal Effect mehishiba ([6]; 40 g/10a) | Herbicidal Effect mehishiba ([6]; 80 g/10a) | Herbicidal Effect cockspur ([8]; 40 g/10a) | Herbicidal Effect cockspur ([8]; 80 g/10a) | Herbicidal Effect mehishiba ([9]; 40 g/10a) | Herbicidal Effect mehishiba ([9]; 80 g/10a) | Herbicidal Effect garden radish (garden radish [11]; 40 g/10a) | Herbicidal Effect garden radish (garden radish [11]; 80 g/10a) | Herbicidal Effect cockspur ([14]; 40 g/10a) | Herbicidal Effect cockspur ([14]; 80 g/10a) | Herbicidal Effect aobiyu ([15]; 40 g/10a) | Herbicidal Effect aobiyu ([15]; 80 g/10a) | other results
CCC(=O)Nc1ccc(Cl)c(Cl)c1 [Comparative agentB, Propanil, reference compound] | 5 | 5 | 0 | 0 | 0 | 0 | 3 | 4 | 0 | 1 | 1 | 1 | 1 | 1 | 1 | 3 | 0 | 0 | 5 | 5 | Herbicidal Effect aobiyu ([2]; 40 g/10a): 5; Herbicidal Effect aobiyu ([2]; 80 g/10a): 5; Herbicidal Effect garden radish (garden radish [7]; 40 g/10a): 3; Herbicidal Effect garden radish (garden radish [7]; 80 g/10a): 4; Herbicidal Effect mehishiba ([10]; 40 g/10a): 1; Herbicidal Effect mehishiba ([10]; 80 g/10a): 1; Herbicidal Effect cockspur ([12]; 40 g/10a): 0; Herbicidal Effect cockspur ([12]; 80 g/10a): 0; Herbicidal Effect rice (rice [13]; 40 g/10a): 0; Herbicidal Effect rice (rice [13]; 80 g/10a): 0
CCCCOC(=O)CSc1cc(N(C(C)=O)C(=O)C2=C(C(=O)OCCCC)CCCC2)c(F)cc1Cl [compound 40] | 5 | 5 | – | – | 1 | 1 | 5 | 5 | – | – | – | – | 1 | 1 | – | – | 1 | 1 | – | – | –
C#CC(C)Oc1cc(N(C(=O)C2=C(C(=O)OCCC)CCCC2)C(=O)c2cccs2)c(F)cc1Cl (centres unmarked) [compound 92] | – | – | 1 | 1 | – | – | – | – | 1 | 1 | 1 | 1 | – | – | 4 | 4 | – | – | 5 | 5 | Herbicidal Effect nobie ([16]; 6.25 g/10a): 5; Herbicidal Effect nobie ([16]; 12.5 g/10a): 5; Herbicidal Effect hotarui ([17]; 6.25 g/10a): 4; Herbicidal Effect hotarui ([17]; 12.5 g/10a): 4; Herbicidal Effect broad-leaved weed (broad-leaved weeds; 6.25 g/10a): 5; Herbicidal Effect broad-leaved weed (broad-leaved weeds; 12.5 g/10a): 5; Herbicidal Effect tamagayatsuri ([18]; 6.25 g/10a): 4; Herbicidal Effect tamagayatsuri ([18]; 12.5 g/10a): 5; Injury of Paddy (paddy rice; 6.25 g/10a): 0; Injury of Paddy (paddy rice; 12.5 g/10a): 0
C#CC(C)Oc1cc(N(C(=O)C2=C(C(=O)OCCCC)CCCC2)C(=O)c2cccs2)c(F)cc1Cl (centres unmarked) [compound 93] | – | – | 1 | 1 | – | – | – | – | 1 | 1 | 1 | 1 | – | – | 4 | 5 | – | – | 5 | 5 | Herbicidal Effect nobie ([16]; 6.25 g/10a): 5; Herbicidal Effect nobie ([16]; 12.5 g/10a): 5; Herbicidal Effect hotarui ([17]; 6.25 g/10a): 4; Herbicidal Effect hotarui ([17]; 12.5 g/10a): 4; Herbicidal Effect broad-leaved weed (broad-leaved weeds; 6.25 g/10a): 5; Herbicidal Effect broad-leaved weed (broad-leaved weeds; 12.5 g/10a): 5; Herbicidal Effect tamagayatsuri ([18]; 6.25 g/10a): 4; Herbicidal Effect tamagayatsuri ([18]; 12.5 g/10a): 4; Injury of Paddy (paddy rice; 6.25 g/10a): 0.5; Injury of Paddy (paddy rice; 12.5 g/10a): 0.5
